Holding throughout (type): in vivo, mouse
For one experiment, the system named is NMRI mice. As to the kind of experiment: Tail suspension test in NMRI mice. The conditions noted are these: single drug i.p. 30 min prior to test, 6 min test. The source says: Drug candidates can be screened for antidepressant-like activity by using animal models. In the tail suspension test the mouse is suspended by its tail. The mouse will initially move and struggle but will with time become increasingly immobile. Pretreatment with a clinically effective antidepressant decreases the time spent immobile. This includes selective serotonin re-uptake inhibitors (SSRIs) and drugs inhibiting the noradrenaline reuptake mechanism, as well as some putative antidepressants with non-monoamine pharmacology. […] In animal models of depression, including the tail suspension test, mouse strains differ considerably in their responsiveness to antidepressants. This may parallel the clinical situation where a considerable subset of patients is refractory to pharmacotherapy. […] In our laboratory mice of the NMRI strain consistently fails to repond to SSRIs in the tail suspension test of antidepressant activity, while C57 mice show a strong response (FIG. 1). Male NMRI and C57Bl/6j mice (Taconic Europe, St. […]) weighing 25-35 g were housed and habituated for at least 7 days before the experiments in Macrolon III cages (20×40×18 cm) with eight mice per cage. Chow and water were available ad libitum, with lights on at 6 a.m. and off at 6 p.m. All behavioral testing was conducted during the light phase. […] All drugs were administered i.p. in saline in a volume of 10 ml/kg. In the tail suspension and locomotor activity experiments drugs were injected 30 min prior to test. The tail suspension test employed was a modified version to that described elsewhere. Mice were suspended individually by the tail using adhesive tape (attached 2 cm from tip of the tail) to a hook attached to a strain gauge and left there for 6 min. The duration of immobility was measured using an automated system (Med Associates, USA) during the 6 min testing period. Tail suspension data were analyzed either using one-way ANOVA (single-drug treatments) or two-way ANOVA (paroxetine/5-HTP and citalopram/5-HTP) with Dunnets post-hoc test. Locomotor activity data were analyzed using two-way ANOVA with Dunnets post-hoc test. Tissue 5-HT data were analyzed using students t-test. Microdialysis 5-HT data were analyzed using two-way repeated measures ANOVA with Dunnets post-hoc test.

In the next experiment the test system is C57Bl/6j mice. As to the kind of experiment: Tail suspension test in C57 mice. The conditions noted are these: single drug i.p. 30 min prior to test, 6 min test. From the text:
Drug candidates can be screened for antidepressant-like activity by using animal models. In the tail suspension test the mouse is suspended by its tail. The mouse will initially move and struggle but will with time become increasingly immobile. Pretreatment with a clinically effective antidepressant decreases the time spent immobile. This includes selective serotonin re-uptake inhibitors (SSRIs) and drugs inhibiting the noradrenaline reuptake mechanism, as well as some putative antidepressants with non-monoamine pharmacology. […] In animal models of depression, including the tail suspension test, mouse strains differ considerably in their responsiveness to antidepressants. […]
The tail suspension test employed was a modified version to that described elsewhere. […] The duration of immobility was measured using an automated system (Med Associates, USA) during the 6 min testing period.
(§1) Tail suspension data were analyzed either using one-way ANOVA (single-drug treatments) or two-way ANOVA (paroxetine/5-HTP and citalopram/5-HTP) with Dunnets post-hoc test. Locomotor activity data were analyzed using two-way ANOVA with Dunnets post-hoc test. Tissue 5-HT data were analyzed using students t-test. Microdialysis 5-HT data were analyzed using two-way repeated measures ANOVA with Dunnets post-hoc test.

Another experiment has as its system extracellular 5-HT. As to the kind of experiment: Microdialysis of extracellular 5-HT in frontal cortex, NMRI mice. The conditions noted are these: citalopram 20 mg/kg, 5-HTP 12.5 mg/kg. Here is the method:
(§2) Male NMRI and C57Bl/6j mice (Taconic Europe, St. Laven, DK) weighing 25-35 g were housed and habituated for at least 7 days before the experiments in Macrolon III cages (20×40×18 cm) with eight mice per cage. Chow and water were available ad libitum, with lights on at 6 a.m. and off at 6 p.m. All behavioral testing was conducted during the light phase.
Microdialysis were performed in freely moving mice as previously described in Jacobsen J P et al.; Neuroscience 2005; 132:1055-1072. The flowrate was 1 ul/min and 20 min samples were collected. Four baseline samples were collected whereafter saline, 5-HTP (12.5 mg/kg), citalopram (20 mg/kg) or citalopram+5-HTP were injected and six additional samples where collected. Samples were collected on ice, immediatedly frozen on dry ice and stored at −80° C. until analysis by HPLC-EC.
(§3) 5-HT in tissue and microdialysis samples were analysed using HPLC-EC as previously described in Weikop P et al.; Eur Neuropsychopharmacol 2007; 17:658-671.
as §1

A further experiment relates to brain 5-HT. In words: Tissue 5-HT in frontal cortex and hippocampus of NMRI mice (HPLC-EC). The conditions noted are these: acute administration. The method, then: as §2
Fluoxetine HCl, desipramine HCL, 5-hydroxytryptamine, citalopram HBr, paroxetine HCl, reboxetine fumarate and duloxetine oxalate. All drugs were administered i.p. in saline in a volume of 10 ml/kg. In the tail suspension and locomotor activity experiments drugs were injected 30 min prior to test.
Mice killed by cervical dislocation and the frontal cortex and hippocampus rapidly dissected, frozen on dry ice and stored at −80° C. until analysis by HPLC-EC.
as §3, §1

Turning to `CNCC[C@H](Oc1cccc2ccccc12)c1cccs1` [duloxetine], the “immobility in tail suspension test” value in the experiment with NMRI mice was “reduced immobility”.

Consider `CCOc1ccccc1OC(c1ccccc1)C1CNCCO1` (stereo not shown) [reboxetine], for which the “immobility in tail suspension test” value was “reduced immobility” with NMRI mice and “decreased immobility” in the experiment with C57Bl/6j mice.

For `Fc1ccc([C@@H]2CCNC[C@H]2COc2ccc3c(c2)OCO3)cc1` [paroxetine], the “immobility in tail suspension test” value in the experiment with NMRI mice is reported as “without effect”.

As to `CNCCCN1c2ccccc2CCc2ccccc21` [desipramine], the “immobility in tail suspension test” value in the experiment on NMRI mice is recorded as “reduced immobility”; in the experiment with C57Bl/6j mice, “decreased immobility”.

`N[C@@H](Cc1c[nH]c2ccc(O)cc12)C(=O)O` [5-HTP, 5-hydroxytryptophan]: the “immobility in tail suspension test” value with NMRI mice is “did not affect immobility”. Besides, in the experiment with extracellular 5-HT, the “increase in extracellular 5-HT in the frontal cortex” value is reported as “only a modest increase”. Also, in the experiment on brain 5-HT (frontal cortex tissue), the “5-HT levels ± sem, Frontal Cortex” value is 122 ± 3.3 % of saline. The “5-HT levels ± sem, Hippocampus” value in the experiment on brain 5-HT (hippocampus tissue) is listed as 83.4 ± 2.6 % of saline. In addition, in the experiment on brain 5-HT (vs saline), the “decrease of tissue 5-HT in the hippocampus” value worked out at 17% and the “increase of tissue 5-HT in the frontal cortex” value turned out to be 22%.

Turning to `CNCCC(Oc1ccc(C(F)(F)F)cc1)c1ccccc1` (stereo not shown) [fluoxetine], the “immobility in tail suspension test” value in the experiment with NMRI mice was “without effect”.
